Measured values as given in US20120270929A1, “MODULATION OF TTC39 EXPRESSION TO INCREASE HDL” (ISIS Pharmaceuticals, Inc., priority 2009, published 2012).
Oligonucleotides are written 5' to 3', each unit as a sugar letter and its base; * is a phosphorothioate linkage, no mark a phosphodiester; rarer units and linkages stand in square brackets, end groups in braces. Plain capitals give the bases only. e = 2'-O-(2-methoxyethyl) (MOE); [5mC] = 5-methylcytosine; d = 2'-deoxy (DNA)

How the values were obtained:
Type in all cases: in vivo, mouse
[1] = test system: LDLR mRNA; assay: LDLR mRNA levels in C57BL/6 mice; conditions: 50 mg/kg/week, 6 weeks, compared to PBS control
Experimental: (§1) Four groups of five mice each were injected twice a week with 25 mg/kg (totaling 50 mg/kg/week) of ISIS 447114, ISIS 447118, ISIS 447143, or ISIS 447144 for 6 weeks. A control group of five mice was injected with phosphate buffered saline (PBS) twice a week for 6 weeks. Plasma samples were obtained before the start of treatment, at week 3 and at week 6. At the end of the treatment period, mice were fasted for 4 hours before being euthanized. Plasma and tissue samples were obtained for further analysis.
(§2) The effect of inhibition of TTC39B in mice on cholesterol homeostasis was studied. PCSK9 mRNA levels were measured using the murine primer probe set mPCSK9 (forward sequence ACCGACTTCAACAGCGTGC, designated herein as SEQ ID NO: 106; reverse sequence GGCTGTCACACTTGCTCGC, designated herein as SEQ ID NO: 107, probe sequence AGGATGGGACACGCTTCCACAGACAX, wherein X is a fluorophore, designated herein as SEQ ID NO: 108). LDLR mRNA levels were measured using the murine primer probe set mLDLR (forward sequence GACCGCAGCGAGTACACCA, designated herein as SEQ ID NO: 109; reverse sequence TCACCTCCGTGTCGAGAGC, designated herein as SEQ ID NO: 110, probe sequence […], designated herein as SEQ ID NO: 111). The results are presented as percentage inhibition compared to the PBS control.

[2] = Liver function: plasma transaminases (ALT, AST) in C57BL/6 mice
Experimental: as §1
To evaluate the impact of ISIS oligonucleotides on the hepatic function of the mice described above, plasma concentrations of transaminases were measured using an automated clinical chemistry analyzer (Olympus Clinical Analyzer). Measurements of alanine transaminase (ALT) and aspartate transaminase (AST) are expressed in IU/L. The results are presented in Tables 19 and 20 and indicate that the oligonucleotides were well tolerated.

[3] = test system: APOA1 plasma protein; assay: APOA1 plasma protein levels in C57BL/6 mice; set-up: APOA1 plasma protein levels: unit not given here; conditions: for APOA1 plasma protein % change over the baseline: 6 weeks
Experimental: as §1

[4] = test system: apoA1 mRNA; assay: apoA1 mRNA levels in C57BL/6 mice after TTC39B inhibition; conditions: 50 mg/kg/week, 6 weeks
Experimental: as §1
(§3) The effect of inhibition of TTC39B in mice on these proteins of reverse cholesterol transport was studied. RNA levels of ABCA1 were measured using murine primer probe set RTS1204 (forward sequence […], designated herein as SEQ ID NO: 97; reverse sequence […], designated herein as SEQ ID NO: 98; and probe sequence […], designated herein as SEQ ID NO: 99). RNA levels of apoA1 were measured using murine primer probe set RTS14737 (forward sequence […], designated herein as SEQ ID NO: 100; reverse sequence […], designated herein as SEQ ID NO: 101; and probe sequence […], designated herein as SEQ ID NO: 102). RNA levels of SRB1 were measured using murine primer probe set mSRB-1 (forward sequence […], designated herein as SEQ ID NO: 103; reverse sequence ATGCGACTTGTCAGGCTGG, designated herein as SEQ ID NO: 104; and probe sequence […], designated herein as SEQ ID NO: 105).

[5] = test system: ABCA1 mRNA; assay: ABCA1 mRNA levels in C57BL/6 mice after TTC39B inhibition; conditions: 50 mg/kg/week, 6 weeks
Experimental: as §1, §3

[6] = test system: SRB1 mRNA; assay: SRB1 mRNA levels in C57BL/6 mice after TTC39B inhibition; conditions: 50 mg/kg/week, 6 weeks
Experimental: as §1, §3

[7] = Plasma glucose in C57BL/6 mice (glucose oxidase assay)
Experimental: as §1
Plasma glucose values were determined using a Beckman Glucose Analyzer II (Beckman Coulter) by a glucose oxidase assay. As presented in Table 14, there was no significant change in glucose levels after treatment with ISIS oligonucleotides.

[8] = test system: PCSK9 mRNA; assay: PCSK9 mRNA levels in C57BL/6 mice; conditions: 50 mg/kg/week, 6 weeks, compared to PBS control
Experimental: as §1, §2

[9] = Plasma cholesterol and triglycerides in C57BL/6 mice (Olympus AU400e); conditions: for total cholesterol % increase over baseline: 6 weeks, baseline average of 72 mg/dL
Experimental: as §1
To investigate the effect of inhibition of TTC39B on triglycerides and cholesterol levels in the plasma, samples were collected on weeks 0, 3, and 6, and total plasma cholesterol, LDL cholesterol, HDL cholesterol, and triglycerides were analyzed on an Olympus AU400e Analyzer.

[10] = Body and organ weights in C57BL/6 mice; conditions: for Kidney weight after treatment / Liver weight after treatment / Spleen weight after treatment: 50 mg/kg/week, 6 weeks
Experimental: as §1
Body weights of all the mice were measured weekly till the end of the treatment period. Organ weights were taken at the end of the treatment period when the mice were euthanized.

[11] = Plasma NEFA and 3-HB in C57BL/6 mice; set-up: 3-HB levels: unit not given here; conditions: for 3-HB % change over the baseline / NEFA % change over the baseline: 6 weeks
Experimental: as §1
Effect of antisense inhibition of TTC39B on free fatty acid levels Plasma levels of non-esterified fatty acids (NEFA) and 3-hydroxybutyric acid (3-HB), which are the end-products of fatty acid oxidation, were measured using an automated clinical chemistry analyzer (Olympus Clinical Analyzer).

[12] = Week 0 (before treatment), 50 mg/kg/week

In the case of “CGGATGATTCTTGCTGGTAA (antisense e[5mC]*eG*eG*eA*eT*dG*dA*dT*dT*d[5mC]*dT*dT*dG*d[5mC]*dT*eG*eG*eT*eA*eA) [ISIS 447114]”, the “Percent inhibition LDLR mRNA levels” value [1] was 2%, the ALT levels [2, 12] was 46 IU/L and the AST levels [2, 12] was 83 IU/L. The ALT levels ([2]; Week 3, 50 mg/kg/week) was 21 IU/L, the AST levels ([2]; Week 3, 50 mg/kg/week) was 29 IU/L and the ALT levels ([2]; Week 6, 50 mg/kg/week) was 40 IU/L. For the same sequence, the AST levels ([2]; Week 6, 50 mg/kg/week) was 93 IU/L, the “APOA1 plasma protein % change over the baseline” value ([3]; 50 mg/kg/week) was “+122%” and the “APOA1 plasma protein levels” value [3, 12] was “+9”. The “APOA1 plasma protein levels” value ([3]; Week 3, 50 mg/kg/week) was “+12”, the “APOA1 plasma protein levels” value ([3]; Week 6, 50 mg/kg/week) was “+22” and the “apoA1 mRNA levels (effect of TTC39B inhibition)” value [4] was −14. For the same sequence, the “abcA1 mRNA levels (effect of TTC39B inhibition)” value [5] was −18, the “srb1 mRNA levels (effect of TTC39B inhibition)” value [6] was −12 and the glucose levels [7, 12] was 293 mg/dL. The glucose levels ([7]; Week 3, 50 mg/kg/week) was 229 mg/dL, the glucose levels ([7]; Week 6, 50 mg/kg/week) was 232 mg/dL and the “Percent inhibition PCSK9 mRNA levels” value [8] was 24%. For the same sequence, the “total cholesterol % increase over baseline” value ([9]; 50 mg/kg/week) was “+61%”, the HDL cholesterol levels [9, 12] was 42 mg/dL and the LDL cholesterol levels [9, 12] was 11 mg/dL. The total cholesterol levels [9, 12] was 66 mg/dL, the triglyceride levels [9, 12] was 107 mg/dL and the HDL cholesterol levels ([9]; Week 3, 50 mg/kg/week) was 47 mg/dL. For the same sequence, the “HDL cholesterol levels (% change over baseline)” value ([9]; Week 3, 50 mg/kg/week) was “+14%”, the LDL cholesterol levels ([9]; Week 3, 50 mg/kg/week) was 12 mg/dL and the total cholesterol levels ([9]; Week 3, 50 mg/kg/week) was 70 mg/dL. The triglyceride levels ([9]; Week 3, 50 mg/kg/week) was 66 mg/dL, the HDL cholesterol levels ([9]; Week 6, 50 mg/kg/week) was 96 mg/dL and the “HDL cholesterol levels (% change over baseline)” value ([9]; Week 6, 50 mg/kg/week) was “+130%”. The LDL cholesterol levels ([9]; Week 6, 50 mg/kg/week) was 19 mg/dL, the total cholesterol levels ([9]; Week 6, 50 mg/kg/week) was 114 mg/dL and the triglyceride levels ([9]; Week 6, 50 mg/kg/week) was 113 mg/dL. The “Kidney weight after treatment” value [10] was 0.33 g, the “Liver weight after treatment” value [10] was 1.3 g and the “Spleen weight after treatment” value [10] was 0.09 g. For the same sequence, the body weight ([10]; Week 3, 50 mg/kg/week) was 26 g, the body weight ([10]; Week 6, 50 mg/kg/week) was 27 g and the body weight ([10]; week 1, 50 mg/kg/week) was 25 g. The body weight ([10]; week 2, 50 mg/kg/week) was 25 g, the body weight ([10]; week 4, 50 mg/kg/week) was 26 g and the body weight ([10]; week 5, 50 mg/kg/week) was 27 g. For the same sequence, the “3-HB % change over the baseline” value ([11]; 50 mg/kg/week) was “+184%”, the “NEFA % change over the baseline” value ([11]; 50 mg/kg/week) was “+144%” and the 3-HB levels [11, 12] was 145. It also gave an NEFA levels [11, 12] of 0.67 mEq/L, a 3-HB levels ([11]; Week 3, 50 mg/kg/week) of 109 and an NEFA levels ([11]; Week 3, 50 mg/kg/week) of 0.49 mEq/L. The 3-HB levels ([11]; Week 6, 50 mg/kg/week) was 449 and the NEFA levels ([11]; Week 6, 50 mg/kg/week) was 1.52 mEq/L.
In the case of “GCAGCTCGATTCGGGCATGA (antisense eG*e[5mC]*eA*eG*e[5mC]*dT*d[5mC]*dG*dA*dT*dT*d[5mC]*dG*dG*dG*e[5mC]*eA*eT*eG*eA) [ISIS 447118]”, the “Percent inhibition LDLR mRNA levels” value [1] was 6%, the ALT levels [2, 12] was 29 IU/L and the AST levels [2, 12] was 88 IU/L. It also gave an ALT levels ([2]; Week 3, 50 mg/kg/week) of 39 IU/L, an AST levels ([2]; Week 3, 50 mg/kg/week) of 39 IU/L and an ALT levels ([2]; Week 6, 50 mg/kg/week) of 50 IU/L. The AST levels ([2]; Week 6, 50 mg/kg/week) was 127 IU/L, the “APOA1 plasma protein % change over the baseline” value ([3]; 50 mg/kg/week) was “+88%” and the “APOA1 plasma protein levels” value [3, 12] was “+9”. The “APOA1 plasma protein levels” value ([3]; Week 3, 50 mg/kg/week) was “+13”, the “APOA1 plasma protein levels” value ([3]; Week 6, 50 mg/kg/week) was “+18” and the “apoA1 mRNA levels (effect of TTC39B inhibition)” value [4] was −23. The “abcA1 mRNA levels (effect of TTC39B inhibition)” value [5] was −2, the “srb1 mRNA levels (effect of TTC39B inhibition)” value [6] was 0 and the glucose levels [7, 12] was 242 mg/dL. For the same sequence, the glucose levels ([7]; Week 3, 50 mg/kg/week) was 271 mg/dL, the glucose levels ([7]; Week 6, 50 mg/kg/week) was 238 mg/dL and the “Percent inhibition PCSK9 mRNA levels” value [8] was 45%. For the same sequence, the “total cholesterol % increase over baseline” value ([9]; 50 mg/kg/week) was “+37%”, the HDL cholesterol levels [9, 12] was 45 mg/dL and the LDL cholesterol levels [9, 12] was 14 mg/dL. It also gave a total cholesterol levels [9, 12] of 71 mg/dL, a triglyceride levels [9, 12] of 82 mg/dL and an HDL cholesterol levels ([9]; Week 3, 50 mg/kg/week) of 50 mg/dL. For the same sequence, the “HDL cholesterol levels (% change over baseline)” value ([9]; Week 3, 50 mg/kg/week) was “+15%”, the LDL cholesterol levels ([9]; Week 3, 50 mg/kg/week) was 13 mg/dL and the total cholesterol levels ([9]; Week 3, 50 mg/kg/week) was 77 mg/dL. The triglyceride levels ([9]; Week 3, 50 mg/kg/week) was 69 mg/dL, the HDL cholesterol levels ([9]; Week 6, 50 mg/kg/week) was 100 mg/dL and the “HDL cholesterol levels (% change over baseline)” value ([9]; Week 6, 50 mg/kg/week) was “+89%”. For the same sequence, the LDL cholesterol levels ([9]; Week 6, 50 mg/kg/week) was 15 mg/dL, the total cholesterol levels ([9]; Week 6, 50 mg/kg/week) was 97 mg/dL and the triglyceride levels ([9]; Week 6, 50 mg/kg/week) was 88 mg/dL. The “Kidney weight after treatment” value [10] was 0.32 g, the “Liver weight after treatment” value [10] was 1.4 g and the “Spleen weight after treatment” value [10] was 0.08 g. The body weight ([10]; Week 3, 50 mg/kg/week) was 26 g, the body weight ([10]; Week 6, 50 mg/kg/week) was 27 g and the body weight ([10]; week 1, 50 mg/kg/week) was 24 g. The body weight ([10]; week 2, 50 mg/kg/week) was 25 g, the body weight ([10]; week 4, 50 mg/kg/week) was 26 g and the body weight ([10]; week 5, 50 mg/kg/week) was 27 g. For the same sequence, the “3-HB % change over the baseline” value ([11]; 50 mg/kg/week) was “+157%”, the “NEFA % change over the baseline” value ([11]; 50 mg/kg/week) was “+90%” and the 3-HB levels [11, 12] was 158. The NEFA levels [11, 12] was 0.67 mEq/L, the 3-HB levels ([11]; Week 3, 50 mg/kg/week) was 111 and the NEFA levels ([11]; Week 3, 50 mg/kg/week) was 0.51 mEq/L. The 3-HB levels ([11]; Week 6, 50 mg/kg/week) was 406 and the NEFA levels ([11]; Week 6, 50 mg/kg/week) was 1.18 mEq/L.
